Where a name gives a salt, the structure may show the parent alone.
Assay: Change in intraocular pressure (IOP) after administration of compound
Format: in vivo

| Compound | Change in IOP (Maximum mmHg change in intraocular pressure) (Concentration 0.05%) [mmHg] | Change in IOP (Maximum mmHg change in intraocular pressure) (Concentration 0.5%) [mmHg] |
| --- | --- | --- |
| CCOc1cccc(C2CN3CCC2CC3)n1 (stereo not shown) [Description A, 3-[2-(6-Ethoxypyridin)yl]-1-azabicyclo[2.2.2]octane Hydrogen Oxalate] | -3.0 | – |
| COc1cccc(C2CN3CCC2C3)n1 (stereo not drawn) [Description B, Endo-3-[2-(6-methoxypyridin)yl]-1-azabicyclo[2.2.1]heptane Hydrogen Oxalate] | -4.5 | – |
| COc1cccc(C2CN3CCC2CC3)n1 (stereo not shown) [Description C, 3-[2-6-Methoxypyridin)yl]-1-azabicyclo[2.2.2]octane Dihydrochloride] | -3.0 | – |
| Clc1cccc(C2CN3CCC2CC3)n1 (stereo not shown) [Description D, 3-[2-(6-Chloropyridin)yl]-1-azabicyclo[2.2.2]octane Hydrogen Oxalate] | – | -3.0 |

Reference: patent EP0492902A1, “Substituted pyridine derivatives for use in the treatment of glaucoma” (MERCK SHARP & DOHME LTD., priority 1990, dated 1992)
